Test [1] concerns human suffering from cardiovascular disease (hypertension). Put plainly: Resting blood pressure in a human suffering from cardiovascular disease taking NEM orally, case report. Type of test: in vivo. The note with it: first subject; atenolol 100 mg/day, before NEM. Here is the method: (§1) The following examples are illustrative of the efficacy of an orally administered eggshell membrane product (trade name NEM®) in treating a human suffering from cardiovascular disease. […] The subject was treating their hypertension with 100 mg/day of atenolol. […] The subject had also had four cardiac stents placed to treat atherosclerotic stenosis (narrowing) of various cardiac blood vessels. The subject consumed one 500 mg capsule per day of NEM® as prepared in Example 5 for about 12 months before noticing an effect on lipid panel results. The subject continued the NEM® regimen for an additional approximately 12 months (about 2 years total). Follow-up lipid panel results were: TC=138 mg/dL, LDL=80 mg/dL, HDL=41 mg/dL, and TG=84 mg/dL. […] The subject also found it necessary to reduce the atenolol dose from 100 mg/day to 25 mg/day.

The subject of test [2] is human suffering from cardiovascular disease (hyperlipidemia, hypertriglyceridemia). Put plainly: Lipid panel in humans suffering from cardiovascular disease taking NEM orally, case reports. It is filed as in vivo. Conditions: second subject; treated with 10 mg/day atorvastatin, before NEM. How it is done:
as §1
A second human with a recent history of cardiovascular disease (hyperlipidemia & hypertriglyceridemia only) was being treated with 10 mg/day of atorvastatin. Treated lipid panel results for this subject were: TC=207 mg/dL, LDL=114 mg/dL, HDL=47 mg/dL, and TG=247 mg/dL. […] The subject consumed one 500 mg capsule per day of NEM® as prepared in Example 5 for about 2 years. Follow-up lipid panel results were: TC=150 mg/dL, LDL=81 mg/dL, HDL=46 mg/dL, and TG=113 mg/dL.

With `CC(C)NCC(O)COc1ccc(CC(N)=O)cc1` (stereo not drawn) [atenolol], in test [1], the “resting diastolic blood pressure” value stood at 84 mm Hg and the “resting systolic blood pressure” value is recorded as 146 mm Hg.
Consider `CC(C)c1c(C(=O)Nc2ccccc2)c(-c2ccccc2)c(-c2ccc(F)cc2)n1CC[C@@H](O)C[C@@H](O)CC(=O)O` [atorvastatin], for which, in test [2], the HDL was 47 mg/dL, the LDL stood at 114 mg/dL, the TG is given as 247 mg/dL and the “Total cholesterol (TC)” value is listed as 207 mg/dL.

Source of the values: patent US10328104B2, “Methods for treating nuclear factor kappa-light-chain-enhancer of activated B cell (NF-κB) dysregulation in a host in need thereof using eggshell membrane compositions” (ESM TECHNOLOGIES, LLC, priority 2015, dated 2019).
